Results reported in patent publication US8217061B2, “Polymorphs of sorafenib tosylate and sorafenib hemi-tosylate, and processes for preparation thereof” (Sicor Inc., priority 2008, dated 2012).

Legend:
[1] = stability of crystalline form in water suspension (no hydrolysis of the PTSA moiety); format: physicochemical; conditions: about 20° C., stable = no hydrolysis of the PTSA moiety in water for at least about 48 hours
Procedure: Sorafenib hemi-tosylate Form A is a stable crystalline form in water suspensions at a temperature of about 20° C., making it ideal for use in the preparation of a dosage form, particularly when the process of wet granulation is used.

[2] = as reported in WO 2006/034797, page 2, lines 5-7; cited from earlier work

stability of crystalline form in water suspensions [1] | Compound | stability of polymorphic form [2]
stable | Sorafenib hemi-tosylate [Sorafenib hemi-tosylate Form A] | 
 | CNC(=O)c1cc(Oc2ccc(NC(=O)Nc3ccc(Cl)c(C(F)(F)F)c3)cc2)ccn1.Cc1ccc(S(=O)(=O)O)cc1 [form II, 4-(4-{3-[4-chloro-3-(trifluoromethyl)phenyl]ureido}phenoxy)-N2-methylpyridine-2-carboxamide 4-methylbenzenesulfonate] | meta stable
